Test results as given in US20110207742A1, “METHOD FOR REDUCTION, STABILIZATION AND PREVENTION OF RUPTURE OF LIPID RICH PLAQUE” (KOWA CO., LTD., priority 2004, published 2011).

Columns and labels:
Format in all cases: in vivo, rabbit
WHHL rabbits [1] = assay: Histopathology of Azan-stained aortic arch, image analysis of plaque area occupied by macrophages and collagen; conditions: Azan stain, 16 weeks, Pitavastatin 0.5 mg/kg, compound 1 10 mg/kg; for percentage of plaque area occupied by collagen: control 26.5%; for percentage of plaque area occupied by macrophages: control 29.5%
Excerpt: In addition to the evaluation of TC, an aorta excised from each WHHL rabbit was histopathologically examined After the completion of measurement, an aortic arch of each WHHL rabbit was immersion-fixed with 4% paraformaldehyde overnight, and was then embedded in paraffin in the usual manner to prepare a paraffin section. The paraffin section was stained with Azan stain. […] FIGS. 1A to 1D are microscope photographs of Azan-stained aortic arches of the WHHL rabbits, and FIGS. 2A and 2B are graphs which show the analysis results of the images shown in FIGS. 1A to 1D. In this regard, it is to be noted that FIG. 1A is a microscope photograph of a control group to which no drug was administered, FIG. 1B is a microscope photograph of a group to which Pitavastatin was administered in single, FIG. 1C is a microscope photograph of a group to which the compound 1 was administered in single, and FIG. 1D is a microscope photograph of a group to which Pitavastatin and the compound 1 were administered in combination.
(§1) A WHHL rabbit was discovered by Dr. Yoshio Watanabe, a former medical professor at Kobe University in 1973, and was established as a strain. The WHHL rabbit is a model animal which naturally develops hypercholesterolemia and arteriosclerosis. Using such WHHL rabbits, the effect of the drugs on plaque stabilization was examined according to the following method.
(§2) Male homozygous WHHL rabbits (Kitayama Labes, Nagano) were purchased from Oriental Yeast (Tokyo), and WHHL rabbits aged about 4 months were used for experiment. For control, single administration of Pitavastatin, single administration of the compound 1, combined administration of Pitavastatin and the compound 1, 8 WHHL rabbits, 7 WHHL rabbits, 3 WHHL rabbits, and 4 WHHL rabbits were used, respectively.
Pitavastatin was synthesized by Nissan Chemical Industries, Ltd. (Tokyo) and was supplied therefrom. In the case of administration of Pitavastatin, 0.5 mg/kg of Pitavastatin dissolved in 400 mL (which is an average amount of drinking water per rabbit a day) of drinking water was administered to each rabbit. In the case of administration of the compound 1, 10 mg/kg (in terms of free base) of the compound 1 dissolved in 400 mL (which is an average amount of drinking water per rabbit a day) of ion-exchange water was administered to each rabbit. One or both of the drugs were administered for 16 weeks. […]
(§3) The results of TC and the ratio of aortic plaque area were expressed as average±standard error. Significance test between the control group and the drug administration groups were detected using Dunnett's test. Histopathological findings were evaluated in terms of the percentage of plaque area occupied by macrophages and the percentage of plaque area occupied by collagen.

WHHL rabbits [2] = assay: Ratio of aortic plaque area in WHHL rabbits; conditions: Pitavastatin 0.5 mg/kg, compound 1 10 mg/kg; for Ratio of aortic plaque area (%) Mean ± S.E: plaque area/aortic intimal surface area×100, 16 weeks via drinking water, control 49.6 ± 5.0; for Inhibition ratio (%) of ratio of aortic plaque area: vs control group, 16 weeks via drinking water
Excerpt: as §1, §2
(§4) Pitavastatin was synthesized by Nissan Chemical Industries, Ltd. (Tokyo) and was supplied therefrom. In the case of administration of Pitavastatin, 0.5 mg/kg of Pitavastatin dissolved in 400 mL (which is an average amount of drinking water per rabbit a day) of drinking water was administered to each rabbit. In the case of administration of the compound 1, 10 mg/kg (in terms of free base) of the compound 1 dissolved in 400 mL (which is an average amount of drinking water per rabbit a day) of ion-exchange water was administered to each rabbit. One or both of the drugs were administered for 16 weeks.
The rabbit was perfused at a perfusion pressure of 120 mmH2O with physiological saline injected from a cardiac apex for about 5 minutes. Further, the rabbit was perfused with 4% paraformaldehyde in the same manner as described above to fix an aorta. The aorta was excised from the rabbit, and fat and connective tissue attached to the aorta were separated. An incision was made along the lesser curvature of the aorta, and then the greater curvature of the aorta was partially incised. The aorta was sandwiched between plastic films in such a manner that the intimal side of the aorta was observed, and a macro image was taken (CAMEDIA E-10, manufactured by Olympus Corporation). Based on the image, plaque area (that is, the area of lipid deposition) and aortic intimal surface area were analyzed by an image analyzer (Win Roof Ver. 5.0, manufactured by MITANI CORPORATION). The ratio of aortic plaque area of each of the rabbits was obtained using the formula:
plaque area/aortic intimal surface area×100
as §3

WHHL rabbits [3] = assay: Total plasma cholesterol (TC) level in WHHL rabbits after 16 weeks of administration; conditions: Pitavastatin 0.5 mg/kg, compound 1 10 mg/kg; for Total plasma cholesterol (mg/dL) Mean ± S.E: male homozygous WHHL rabbits, via drinking water for 16 weeks, control 646.8 ± 27.1
Experimental: For the investigation of the effect of these drugs on total plasma cholesterol (TC), one or both of the compound 1 (10 mg/kg) and Pitavastatin (0.5 mg/kg) were administered to WHHL rabbits via drinking water for 16 weeks to measure the TC of each of the WHHL rabbits.
as §1, §2, §4
In the next morning after last administration, each of the rabbits was placed in a restraining box, and the ear of the rabbit was sterilized with an alcohol. Then, about 1 mL of blood was collected from an ear vein with a syringe containing EDTA (final concentration, 0.1%). The collected blood was centrifuged at 4,200×g for 5 minutes to fractionate plasma. TC was measured using cholesterol E-test Wako (by a cholesterol oxidaseΩDAOS method).
as §3

| Structure (SMILES) | percentage of plaque area occupied by collagen (WHHL rabbits [1]) | percentage of plaque area occupied by macrophages (WHHL rabbits [1]) | Ratio of aortic plaque area (%) Mean ± S.E (WHHL rabbits [2]) | Inhibition ratio (%) of ratio of aortic plaque area (WHHL rabbits [2]) | effect on TC (in words) (WHHL rabbits [3]; WHHL rabbits, 16 weeks via drinking water) | Total plasma cholesterol (mg/dL) Mean ± S.E (WHHL rabbits [3]) | Inhibition ratio (%) of total plasma cholesterol (WHHL rabbits [3]; vs control group, WHHL rabbits, 16 weeks via drinking water) |
| --- | --- | --- | --- | --- | --- | --- | --- |
| CSc1cc(C)nc(SC)c1NC(=O)CN1CCN(CCSc2nc3ccccc3[nH]2)CC1 [Compound 1, 2-[4-[2-(benzimidazole-2-ylthio)ethyl]piperazin-1-yl]-N-[2,4-bis(methylthio)-6-methyl-3-pyridyl]acetamide] | 44.8% | 14.9% | 43.7 ± 4.1% | 11.9% | no effect on TC | 648.3 ± 82.2 mg/dL |  |
| O=C(O)C[C@H](O)C[C@H](O)/C=C/c1c(C2CC2)nc2ccccc2c1-c1ccc(F)cc1 [Pitavastatin] | 34.7% | 17.1% | 47.1 ± 6.6% | 5.0% |  | 524.2 ± 35.6 mg/dL | 19% |
